Reference: article PMC7665244 (Developmental cell, 2019)

Target: hCFTR (human CFTR) (Homo sapiens, UniProt P13569)
Assay: inside-out oocyte macropatch current
Type: biochemical
Conditions: 1 mM ATP and PKA 127.6 U/mL; potentiator

hCFTR (human CFTR), sequence (P13569 whole entry): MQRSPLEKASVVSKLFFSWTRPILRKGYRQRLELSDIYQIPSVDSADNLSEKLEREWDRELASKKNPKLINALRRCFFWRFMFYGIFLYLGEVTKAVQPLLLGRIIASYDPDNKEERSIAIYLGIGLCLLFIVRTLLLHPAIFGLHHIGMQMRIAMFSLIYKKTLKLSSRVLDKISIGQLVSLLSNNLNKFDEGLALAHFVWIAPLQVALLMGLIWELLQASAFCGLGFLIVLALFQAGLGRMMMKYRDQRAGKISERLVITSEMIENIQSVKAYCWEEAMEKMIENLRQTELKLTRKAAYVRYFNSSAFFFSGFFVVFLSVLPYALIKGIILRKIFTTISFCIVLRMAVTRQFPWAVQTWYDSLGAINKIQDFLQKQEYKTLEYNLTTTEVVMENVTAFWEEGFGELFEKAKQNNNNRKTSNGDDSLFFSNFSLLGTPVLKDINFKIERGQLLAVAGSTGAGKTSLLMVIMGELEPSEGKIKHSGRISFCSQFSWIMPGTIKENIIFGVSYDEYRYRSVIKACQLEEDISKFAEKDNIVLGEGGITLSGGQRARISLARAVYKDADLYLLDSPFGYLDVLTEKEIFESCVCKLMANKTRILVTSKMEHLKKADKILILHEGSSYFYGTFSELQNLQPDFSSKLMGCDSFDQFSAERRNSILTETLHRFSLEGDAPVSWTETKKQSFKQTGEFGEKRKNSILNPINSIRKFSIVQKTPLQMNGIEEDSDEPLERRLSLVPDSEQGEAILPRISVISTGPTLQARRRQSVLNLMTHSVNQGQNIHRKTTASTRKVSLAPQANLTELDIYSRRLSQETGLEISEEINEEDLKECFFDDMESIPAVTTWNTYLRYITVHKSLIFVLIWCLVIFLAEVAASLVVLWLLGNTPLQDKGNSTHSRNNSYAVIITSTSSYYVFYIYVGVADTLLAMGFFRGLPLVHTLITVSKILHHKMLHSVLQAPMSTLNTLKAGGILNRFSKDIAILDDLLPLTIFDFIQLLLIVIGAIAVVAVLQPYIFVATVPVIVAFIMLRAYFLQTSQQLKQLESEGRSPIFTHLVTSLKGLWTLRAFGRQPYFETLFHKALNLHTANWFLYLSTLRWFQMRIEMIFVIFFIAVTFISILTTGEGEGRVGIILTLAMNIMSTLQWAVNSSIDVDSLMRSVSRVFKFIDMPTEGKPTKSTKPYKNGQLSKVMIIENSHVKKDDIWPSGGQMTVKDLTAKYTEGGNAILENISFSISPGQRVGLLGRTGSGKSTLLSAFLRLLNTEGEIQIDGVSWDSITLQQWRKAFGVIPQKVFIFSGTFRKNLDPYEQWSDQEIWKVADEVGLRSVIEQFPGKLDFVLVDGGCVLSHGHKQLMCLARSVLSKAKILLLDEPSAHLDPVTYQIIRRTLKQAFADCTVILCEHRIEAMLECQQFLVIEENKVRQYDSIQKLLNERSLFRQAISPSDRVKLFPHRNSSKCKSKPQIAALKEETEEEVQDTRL

CC(C)(C)c1cc(C(C)(C)C)c(NC(=O)c2c[nH]c3ccccc3c2=O)cc1O [VX-770]
fractional potentiation at 0.2 μM: although hCFTR is potentiated, Lp-CFTR shows no enhancement of function
